IC50, AC50 and EC50 data for two compounds are collected here from ChEMBL document CHEMBL1201862, “PubChem BioAssay data set” (2004).

Active and inactive are the calls of the source. Bounds are passed on as bounds.

Test [1] deals with T1, Sentrin-specific protease 1 (Homo sapiens, UniProt Q9P0U3).
T1 sequence (Q9P0U3 whole entry): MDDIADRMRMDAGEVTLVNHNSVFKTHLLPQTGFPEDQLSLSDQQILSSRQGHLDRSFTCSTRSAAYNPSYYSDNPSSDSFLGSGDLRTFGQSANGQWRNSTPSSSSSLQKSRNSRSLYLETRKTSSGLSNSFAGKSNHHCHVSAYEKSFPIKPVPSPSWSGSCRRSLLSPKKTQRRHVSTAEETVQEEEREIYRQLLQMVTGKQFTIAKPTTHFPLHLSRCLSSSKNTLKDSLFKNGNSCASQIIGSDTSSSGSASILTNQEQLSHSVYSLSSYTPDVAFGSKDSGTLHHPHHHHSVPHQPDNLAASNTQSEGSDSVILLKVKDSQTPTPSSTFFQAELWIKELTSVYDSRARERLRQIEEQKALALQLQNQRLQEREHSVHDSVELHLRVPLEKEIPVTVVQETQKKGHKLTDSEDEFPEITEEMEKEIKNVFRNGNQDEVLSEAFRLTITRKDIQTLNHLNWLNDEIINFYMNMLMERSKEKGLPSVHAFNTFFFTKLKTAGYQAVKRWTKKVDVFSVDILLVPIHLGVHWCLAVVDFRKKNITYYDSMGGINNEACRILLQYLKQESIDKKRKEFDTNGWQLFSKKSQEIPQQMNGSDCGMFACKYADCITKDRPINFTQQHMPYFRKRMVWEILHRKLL
Nature of the test: SENP1 catalytic domain blockers, concentration series – biochemical, kinetic FRET, dose response (AID 651697). The class given is functional. The conditions noted are these: read-out: IC50_Mean.

In test [2] the target is T2, Rac GTPase-activating protein 1 (Homo sapiens, UniProt Q9H0H5).
T2 sequence (Q9H0H5 whole entry): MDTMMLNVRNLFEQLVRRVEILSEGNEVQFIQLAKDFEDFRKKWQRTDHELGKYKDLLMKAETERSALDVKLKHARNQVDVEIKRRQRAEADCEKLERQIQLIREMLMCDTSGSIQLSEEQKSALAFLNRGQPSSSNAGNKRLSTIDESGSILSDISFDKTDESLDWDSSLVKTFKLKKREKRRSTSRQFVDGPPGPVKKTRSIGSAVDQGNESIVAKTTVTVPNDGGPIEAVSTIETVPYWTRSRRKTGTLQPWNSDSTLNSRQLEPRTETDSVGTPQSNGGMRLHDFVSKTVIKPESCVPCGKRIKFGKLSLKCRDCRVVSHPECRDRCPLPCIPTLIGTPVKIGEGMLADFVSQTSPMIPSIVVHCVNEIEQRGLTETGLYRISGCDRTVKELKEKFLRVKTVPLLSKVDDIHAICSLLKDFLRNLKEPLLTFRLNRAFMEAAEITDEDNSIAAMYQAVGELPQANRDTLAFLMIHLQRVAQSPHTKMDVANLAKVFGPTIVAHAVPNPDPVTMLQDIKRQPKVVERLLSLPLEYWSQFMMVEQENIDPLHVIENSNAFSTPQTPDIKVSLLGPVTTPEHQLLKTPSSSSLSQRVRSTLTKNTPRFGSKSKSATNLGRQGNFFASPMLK
Nature of the test: blockers of MgcRacGAP-driven Rac1 GTP hydrolysis – biochemical, ADP Hunter fluorescence, primary and confirmatory, confirmation (AID 624330). The class given is functional.

For test [3], the target named is Lysine-specific demethylase 4C (Homo sapiens, UniProt Q9H3R0). Kind of test: inhibition of JMJD2C H3K9me3 demethylation – biochemical, DELFIA europium, cherry-picked samples, dose response (AID 488835). The class given is functional.
The target of test [4] is T1, Sentrin-specific protease 1. Kind of test: Dose response confirmation of small molecule inhibitors of the catalytic domain of the SUMO protease, SENP1 in a FRET assay. It is filed as functional. Particulars: read-out: IC50_Mean.
For test [5], the target named is Lysine-specific demethylase 4A (Homo sapiens, UniProt O75164). Kind of test: inhibition of JMJD2A H3K9me3 demethylation – biochemical, DELFIA europium, cherry-picked samples, selectivity assay for GASC-1 inhibitor project, dose response (AID 488840).
In test [6] the target is Dual specificity tyrosine-phosphorylation-regulated kinase 1A (Rattus norvegicus, UniProt Q63470). The class given is biochemical, Homo sapiens.
The target in test [7] is T3, Delta-type opioid receptor (Homo sapiens, UniProt P41143). Nature of the test: DOR agonists, SAR follow-up, image-based (AID 2370). The class given is functional.
Test [8] concerns the target T4, Mu-type opioid receptor (Homo sapiens, UniProt P35372). Nature of the test: HTS Image-Based Screen for Agonists of the MOR Receptor. [Related pubchem assays (depositor defined):AID1777, AID1785, AID1786, AID2133]. The class given is functional.
In test [9] the target is T3, Delta-type opioid receptor. Nature of the test: HTS Image-Based Screen for Agonists of the DOR Receptor. [Related pubchem assays (depositor defined):AID1777, AID1786, AID2133]. It is filed as functional.
Test [10] addresses T5, Kappa-type opioid receptor (Homo sapiens, UniProt P41145). Kind of test: kappa opioid receptor blockers, image-based, SAR follow-up (AID 2348). It is filed as functional.
Test [11] addresses T5, Kappa-type opioid receptor. Kind of test: SAR analysis of small molecule agonists of the kappa opioid receptor via a luminescent beta-arrestin assay - Set 3. [Related pubchem assays (depositor defined):AID1777, AID1785, AID1786, AID1966, AID2133, AID2136, AID2284, AID2500]. It is filed as functional.
The target in test [12] is T3, Delta-type opioid receptor. Nature of the test: HTS Image-Based Screen for Antagonists of the DOR Receptor. [Related pubchem assays (depositor defined):AID1777, AID1785, AID1786, AID2133]. The class given is functional.
Test [13] addresses T5, Kappa-type opioid receptor. It is filed as functional.
For test [14], the target named is T4, Mu-type opioid receptor. Nature of the test: mu opioid receptor blockers – image-based, SAR follow-up (AID 2420).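 Note: compounds added before stimulation of receptor with agonist DAMGO.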 The class given is functional.
Test [15] concerns the target T5, Kappa-type opioid receptor. The class given is functional. The source holds these as a separate data set.
Test [16] concerns the target T5, Kappa-type opioid receptor. Kind of test: SAR analysis of small molecule agonists of the kappa opioid receptor via a luminescent beta-arrestin assay. [Related pubchem assays (depositor defined):AID1777, AID1786, AID1966, AID2133, AID2136, AID2348, AID2352, AID2357, AID2359, AID2370, AID2420, AID2478, AID2491, AID2492, AID2493, AID2497, AID2498, AID2500, AID449737, AID488822, AID488842]. The class given is functional.

The target of test [17] is T3, Delta-type opioid receptor. Kind of test: delta opioid receptor blockers – image-based, SAR follow-up (AID 2357). It is filed as functional.
For test [18], the target named is T4, Mu-type opioid receptor. Kind of test: mu opioid receptor activators, image-based, SAR follow-up (AID 2352). It is filed as functional.

T4 sequence (P35372 whole entry): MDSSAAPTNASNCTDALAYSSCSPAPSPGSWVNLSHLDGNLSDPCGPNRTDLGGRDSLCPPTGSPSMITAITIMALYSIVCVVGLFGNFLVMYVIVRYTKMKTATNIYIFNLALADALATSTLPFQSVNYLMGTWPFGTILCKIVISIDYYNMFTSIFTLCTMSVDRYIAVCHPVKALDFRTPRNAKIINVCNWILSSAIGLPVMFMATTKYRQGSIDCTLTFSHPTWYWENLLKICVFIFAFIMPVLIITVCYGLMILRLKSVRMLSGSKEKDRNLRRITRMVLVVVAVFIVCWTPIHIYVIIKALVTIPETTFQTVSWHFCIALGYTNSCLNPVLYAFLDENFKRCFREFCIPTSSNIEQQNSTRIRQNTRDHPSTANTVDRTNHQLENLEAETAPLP
T5 sequence (P41145 whole entry): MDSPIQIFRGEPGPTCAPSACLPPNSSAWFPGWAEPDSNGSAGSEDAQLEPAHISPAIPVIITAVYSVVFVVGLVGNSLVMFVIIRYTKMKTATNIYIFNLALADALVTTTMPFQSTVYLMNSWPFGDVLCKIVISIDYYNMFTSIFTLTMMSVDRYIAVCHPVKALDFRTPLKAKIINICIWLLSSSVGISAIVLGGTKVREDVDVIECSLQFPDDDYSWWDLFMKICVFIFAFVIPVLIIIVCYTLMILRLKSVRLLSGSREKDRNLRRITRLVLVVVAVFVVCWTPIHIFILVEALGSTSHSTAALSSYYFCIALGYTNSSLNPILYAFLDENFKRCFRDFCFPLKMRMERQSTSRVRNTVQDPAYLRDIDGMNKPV
T3 sequence (P41143 whole entry): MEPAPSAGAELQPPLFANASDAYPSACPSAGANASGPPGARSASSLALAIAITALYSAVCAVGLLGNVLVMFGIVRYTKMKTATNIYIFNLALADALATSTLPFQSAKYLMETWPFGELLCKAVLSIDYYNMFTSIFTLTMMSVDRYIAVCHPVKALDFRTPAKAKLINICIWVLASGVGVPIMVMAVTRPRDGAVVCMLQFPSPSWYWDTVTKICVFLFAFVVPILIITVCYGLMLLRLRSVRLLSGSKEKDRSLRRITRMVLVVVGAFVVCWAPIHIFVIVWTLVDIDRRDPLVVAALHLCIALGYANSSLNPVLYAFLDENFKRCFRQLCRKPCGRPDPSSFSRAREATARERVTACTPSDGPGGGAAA
Sequence of Lysine-specific demethylase 4A (O75164 whole entry): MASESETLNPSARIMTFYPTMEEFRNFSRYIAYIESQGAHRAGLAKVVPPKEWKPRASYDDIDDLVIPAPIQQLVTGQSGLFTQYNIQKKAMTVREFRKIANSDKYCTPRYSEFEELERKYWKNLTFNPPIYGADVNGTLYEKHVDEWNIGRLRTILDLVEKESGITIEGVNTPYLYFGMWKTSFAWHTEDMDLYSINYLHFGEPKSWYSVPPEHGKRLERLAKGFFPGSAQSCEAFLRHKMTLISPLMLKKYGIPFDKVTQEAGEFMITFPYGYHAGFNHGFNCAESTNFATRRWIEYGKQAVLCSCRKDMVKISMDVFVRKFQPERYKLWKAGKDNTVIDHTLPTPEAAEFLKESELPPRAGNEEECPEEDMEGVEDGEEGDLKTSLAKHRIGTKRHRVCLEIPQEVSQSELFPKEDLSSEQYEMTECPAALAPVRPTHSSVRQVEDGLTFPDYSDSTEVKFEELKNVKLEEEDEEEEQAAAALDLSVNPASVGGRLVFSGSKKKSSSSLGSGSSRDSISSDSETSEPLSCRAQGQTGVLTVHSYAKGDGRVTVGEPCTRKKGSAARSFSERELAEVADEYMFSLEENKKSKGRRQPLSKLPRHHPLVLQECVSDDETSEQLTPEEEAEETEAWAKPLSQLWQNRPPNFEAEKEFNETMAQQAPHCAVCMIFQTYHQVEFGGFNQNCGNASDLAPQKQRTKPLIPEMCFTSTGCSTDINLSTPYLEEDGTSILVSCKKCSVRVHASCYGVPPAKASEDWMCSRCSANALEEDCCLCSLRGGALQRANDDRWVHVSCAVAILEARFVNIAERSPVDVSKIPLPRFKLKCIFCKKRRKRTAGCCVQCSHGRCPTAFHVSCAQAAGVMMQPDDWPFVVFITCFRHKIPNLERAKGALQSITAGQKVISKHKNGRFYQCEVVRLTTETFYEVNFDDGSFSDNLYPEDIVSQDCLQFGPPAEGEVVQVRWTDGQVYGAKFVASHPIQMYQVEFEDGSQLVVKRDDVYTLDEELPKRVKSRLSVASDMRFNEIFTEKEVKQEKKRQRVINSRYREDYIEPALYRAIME
Sequence of Lysine-specific demethylase 4C (Q9H3R0 whole entry, the tested form may be a part): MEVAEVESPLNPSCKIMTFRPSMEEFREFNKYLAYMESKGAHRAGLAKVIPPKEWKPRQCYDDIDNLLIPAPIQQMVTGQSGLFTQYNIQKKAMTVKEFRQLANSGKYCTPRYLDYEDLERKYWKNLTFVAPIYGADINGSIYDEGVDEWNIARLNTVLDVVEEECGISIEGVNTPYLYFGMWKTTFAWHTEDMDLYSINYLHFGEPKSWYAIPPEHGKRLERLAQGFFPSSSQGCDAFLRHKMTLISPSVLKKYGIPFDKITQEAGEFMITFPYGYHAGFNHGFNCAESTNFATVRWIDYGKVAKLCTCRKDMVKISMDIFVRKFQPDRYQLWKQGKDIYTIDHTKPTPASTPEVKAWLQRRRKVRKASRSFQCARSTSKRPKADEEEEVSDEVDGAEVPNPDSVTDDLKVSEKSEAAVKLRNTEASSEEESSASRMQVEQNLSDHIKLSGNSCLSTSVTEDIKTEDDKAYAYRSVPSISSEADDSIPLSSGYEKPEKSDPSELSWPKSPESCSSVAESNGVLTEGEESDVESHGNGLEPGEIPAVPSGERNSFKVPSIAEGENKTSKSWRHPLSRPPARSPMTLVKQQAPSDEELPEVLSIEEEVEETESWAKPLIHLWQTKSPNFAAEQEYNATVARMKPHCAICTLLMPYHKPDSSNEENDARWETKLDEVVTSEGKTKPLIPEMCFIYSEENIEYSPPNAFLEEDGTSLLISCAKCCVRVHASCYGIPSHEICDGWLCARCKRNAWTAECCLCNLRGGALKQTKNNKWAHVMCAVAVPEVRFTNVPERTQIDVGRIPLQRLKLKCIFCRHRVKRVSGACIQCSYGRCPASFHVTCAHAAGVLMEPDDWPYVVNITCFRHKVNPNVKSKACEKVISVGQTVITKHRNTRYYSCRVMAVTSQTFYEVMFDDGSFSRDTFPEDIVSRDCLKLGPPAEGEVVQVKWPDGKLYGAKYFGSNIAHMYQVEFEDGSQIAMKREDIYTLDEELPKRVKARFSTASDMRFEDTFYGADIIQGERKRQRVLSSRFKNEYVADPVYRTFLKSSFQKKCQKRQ

The term AC50 denotes the midpoint of the concentration-response curve, whichever way the signal moves. Turning to `C[C@@H]1O[C@@H](OC[C@H]2O[C@@H](Oc3cc(O)c4c(=O)cc(-c5ccc(O)c(O)c5)oc4c3)[C@H](O)[C@@H](O)[C@@H]2O)[C@H](O)[C@H](O)[C@H]1O`, the IC50 in [1] is 14.7 µM (active); in [2], 42.7 µM (active); in test [4], 6.84 µM (active). For the same compound, the figures for the AC50 in test [3], in test [5] and in test [6] were 2.82 µM (active), 2.86 µM (active) and 15.8 µM (active), respectively.
A word on the EC50: it is the concentration giving half of the maximal effect. Regarding `CCCCN(Cc1cc2cc(C)ccc2[nH]c1=O)C(=O)c1ccccn1`, the EC50 was > 32 µM (inactive) in [7]; > 32 µM (inactive) at Mu-type opioid receptor [8]; > 32 µM (inactive) in test [9]; 8.38 µM (active) in test [11]; 4.95 µM in test [13]; 4.84 µM in [15]. For the same compound, the EC50 was 7.69 µM (active) in test [16] and > 32 µM (inactive) on Mu-type opioid receptor [18]. The IC50 (in test [10]; in test [12]; on Mu-type opioid receptor [14]; in test [17]) was > 32 µM (inactive) each time.
